Reference: patent publication US8592181B2, “Brazzein variant having higher sweetness and method for preparing multi-variant” (Chung-Ang University Industry-Academy Cooperation Foundation, priority 2009, dated 2013)

Tested on: human sense of taste
Assay: Sweetness measured by human sense of taste (20 trained subjects, minimum concentration at which sweetness is first sensed)
Assay type: in vivo
Details: for Multiples of increased sweetness to minor-type brazzein: relative to minor-type brazzein; for Minimum stimulation level in which one senses sweetness for first time: 20 trained subjects; for Sweetness ratios of sucrose (1 g/100 ml) to primary brazzein variants (minor-type brazzein: 2000) / Sweetness ratios of sucrose (1 g/100 ml) to brazzein multi-variants: relative to 1 g/100 ml sucrose threshold
Description: Since the recombinant brazzein according to the present invention is not a sucrose-based compound having a cyclic ring, the sweetness of the recombinant brazzein was not measured using a saccharometer. Therefore, the activity of the recombinant brazzein was measured using the human sense of taste. Sugar content measurement was performed on 20 subjects who were trained to feel substantially the same minimum concentration of sucrose in which they could sense sweetness using a sucrose solution. That is, a concentration of each brazzein variant in which the subjects could sense sweetness for the first time was measured. Also, a sweetness ratio of the sucrose solution to the wild-type brazzein was 1 g/100 ml, which was a minimum stimulation level in which the subjects could sense sweetness. Also, a sweetness ratio of the minor-type brazzein protein to the wild-type brazzein was 500 μg/100 ml, which was a minimum stimulation level in which the subjects could sense sweetness. Therefore, the sweetness was calculated using the sweetness ratios (That is, 1/0.0005=2000 for the minor-type brazzein).
Also, the brazzein multi-variants were measured for activity (sweetness) in the same manner as in Example 3-1.

Molecule | Minimum stimulation level in which the subjects could sense sweetness (sucrose solution) [g/100 ml] | Multiples of increased sweetness to minor-type brazzein (primary brazzein variants) | Minimum stimulation level in which one senses sweetness for first time (primary brazzein variants) | Sweetness ratios of sucrose (1 g/100 ml) to primary brazzein variants (minor-type brazzein: 2000) | Multiples of increased sweetness to minor-type brazzein (brazzein multi-variants) | Sweetness ratios of sucrose (1 g/100 ml) to brazzein multi-variants
OC[C@H]1O[C@@](CO)(O[C@H]2O[C@H](CO)[C@@H](O)[C@H](O)[C@H]2O)[C@@H](O)[C@@H]1O [sucrose, reference compound] | 1 |  |  |  |  | 
E35A: primary brazzein variant: Glu at position 35 of minor-type brazzein substituted with Ala (DKCKKVYENYPVSKCQLANQCNYDCKLRKHARSGACFYDEKRNLQCICDYCEY; Brazzein(E35A)) [Brazzein E35A] |  | 0.05 | 10,000 μg/100 ml | 100 |  | 
E35D_E40A: secondary brazzein variant of minor-type brazzein with substitutions E35D and E40A (DKCKKVYENYPVSKCQLANQCNYDCKLRKHAKSGDCFYDAKRNLQCICDYCEY; Brazzein(E35D_E40A)) [Brazzein E35D_E40A] |  |  |  |  | 5 | 10,000
E35D_E40D: secondary brazzein variant of minor-type brazzein with substitutions E35D and E40D (DKCKKVYENYPVSKCQLANQCNYDCKLRKHAKSGDCFYDDKRNLQCICDYCEY; Brazzein(E35D_E40D)) [Brazzein E35D_E40D] |  |  |  |  | 5 | 10,000
E35D_E40K: secondary brazzein variant of minor-type brazzein with substitutions E35D and E40K (DKCKKVYENYPVSKCQLANQCNYDCKLRKHAKSGDCFYDKKRNLQCICDYCEY; Brazzein(E35D_E40K)) [Brazzein E35D_E40K] |  |  |  |  | 4 | 8,000
E35D_E40R: secondary brazzein variant of minor-type brazzein with substitutions E35D and E40R (DKCKKVYENYPVSKCQLANQCNYDCKLRKHAKSGDCFYDRKRNLQCICDYCEY; Brazzein(E35D_E40R)) [Brazzein E35D_E40R] |  |  |  |  | 6 | 12,000
E35H: primary brazzein variant: Glu at position 35 of minor-type brazzein substituted with His (DKCKKVYENYPVSKCQLANQCNYDCKLRKHARSGHCFYDEKRNLQCICDYCEY; Brazzein(E35H)) [Brazzein E35H] |  | 0.08 | 6,000 μg/100 ml | 167 |  | 
E35K: primary brazzein variant: Glu at position 35 of minor-type brazzein substituted with Lys (DKCKKVYENYPVSKCQLANQCNYDCKLRKHARSGKCFYDEKRNLQCICDYCEY; Brazzein(E35K)) [Brazzein E35K] |  | 0.08 | 6,000 μg/100 ml | 167 |  | 
E35R: primary brazzein variant: Glu at position 35 of minor-type brazzein substituted with Arg (DKCKKVYENYPVSKCQLANQCNYDCKLRKHARSGRCFYDEKRNLQCICDYCEY; Brazzein(E35R)) [Brazzein E35R] |  | 0.08 | 6,000 μg/100 ml | 167 |  | 
E40H: primary brazzein variant: Glu at position 40 of minor-type brazzein substituted with His (DKCKKVYENYPVSKCQLANQCNYDCKLRKHARSGECFYDHKRNLQCICDYCEY; Brazzein(E40H)) [Brazzein E40H] |  | 2 | 250 μg/100 ml | 4,000 |  | 
H30A: primary brazzein variant: His at position 30 of minor-type brazzein substituted with Ala (DKCKKVYENYPVSKCQLANQCNYDCKLRKAARSGECFYDEKRNLQCICDYCEY; Brazzein(H30A)) [Brazzein H30A] |  | 0.08 | 6,000 μg/100 ml | 167 |  | 
H30D: primary brazzein variant: His at position 30 of minor-type brazzein substituted with Asp (DKCKKVYENYPVSKCQLANQCNYDCKLRKDARSGECFYDEKRNLQCICDYCEY; Brazzein(H30D)) [Brazzein H30D] |  | 0.16 | 3,000 μg/100 ml | 334 |  | 
H30E: primary brazzein variant: His at position 30 of minor-type brazzein substituted with Glu (DKCKKVYENYPVSKCQLANQCNYDCKLRKEARSGECFYDEKRNLQCICDYCEY; Brazzein(H30E)) [Brazzein H30E] |  | 0.16 | 3,000 μg/100 ml | 334 |  | 
H30K: primary brazzein variant: His at position 30 of minor-type brazzein substituted with Lys (DKCKKVYENYPVSKCQLANQCNYDCKLRKKARSGECFYDEKRNLQCICDYCEY; Brazzein(H30K)) [Brazzein H30K] |  | 2 | 250 μg/100 ml | 4,000 |  | 
H30R_E40A: secondary brazzein variant of minor-type brazzein with substitutions H30R and E40A (DKCKKVYENYPVSKCQLANQCNYDCKLRKRAKSGECFYDAKRNLQCICDYCEY; Brazzein(H30R_E40A)) [Brazzein H30R_E40A] |  |  |  |  | 4 | 8,000
H30R_E40D: secondary brazzein variant of minor-type brazzein with substitutions H30R and E40D (DKCKKVYENYPVSKCQLANQCNYDCKLRKRAKSGECFYDDKRNLQCICDYCEY; Brazzein(H30R_E40D)) [Brazzein H30R_E40D] |  |  |  |  | 4 | 8,000
H30R_E40K: secondary brazzein variant of minor-type brazzein with substitutions H30R and E40K (DKCKKVYENYPVSKCQLANQCNYDCKLRKRAKSGECFYDKKRNLQCICDYCEY; Brazzein(H30R_E40K)) [Brazzein H30R_E40K] |  |  |  |  | 5 | 10,000
H30R_E40R: secondary brazzein variant of minor-type brazzein with substitutions H30R and E40R (DKCKKVYENYPVSKCQLANQCNYDCKLRKRAKSGECFYDRKRNLQCICDYCEY; Brazzein(H30R_E40R)) [Brazzein H30R_E40R] |  |  |  |  | 5 | 10,000
K5A: primary brazzein variant: Lys at position 5 of minor-type brazzein substituted with Ala (DKCKAVYENYPVSKCQLANQCNYDCKLRKHARSGECFYDEKRNLQCICDYCEY; Brazzein(K5A)) [Brazzein K5A] |  | 0.08 | 6,000 μg/100 ml | 167 |  | 
K5D: primary brazzein variant: Lys at position 5 of minor-type brazzein substituted with Asp (DKCKDVYENYPVSKCQLANQCNYDCKLRKHARSGECFYDEKRNLQCICDYCEY; Brazzein(K5D)) [Brazzein K5D] |  | 0.08 | 6,000 μg/100 ml | 167 |  | 
K5E: primary brazzein variant: Lys at position 5 of minor-type brazzein substituted with Glu (DKCKEVYENYPVSKCQLANQCNYDCKLRKHARSGECFYDEKRNLQCICDYCEY; Brazzein(K5E)) [Brazzein K5E] |  | 0.08 | 6,000 μg/100 ml | 167 |  | 
K5H: primary brazzein variant: Lys at position 5 of minor-type brazzein substituted with His (DKCKHVYENYPVSKCQLANQCNYDCKLRKHARSGECFYDEKRNLQCICDYCEY; Brazzein(K5H)) [Brazzein K5H] |  | 0.05 | 10,000 μg/100 ml | 100 |  | 
